This is an account of results in patent publication US11946027B2, “Systems and methods for monitoring behavior of cells and/or tissues in culturing media” (Purdue Research Foundation, priority 2019, dated 2024).

The test system of series [1] is MCF7 cells. Put plainly: Real-time impedance monitoring in three-layer stacked scaffold seeded with MCF7 cells, Dox introduced on the top. It is filed as cell-based. To be noted: 1 mM Dox introduced on the top at 1-day incubation. Here is the method:
In this configuration, each layer of the scaffold system remains spaced apart a fixed distance of about 5 mm along the perimeter by using spacers made of PDMS.
(§1) The impedance was measured by using an LCR meter (Agilent 4294A, USA) with the voltage (between two adjacent recording electrodes) of about 1 mV for 48 hours at the frequencies of 1, 5, 10, 20, 30, 50, 100, 150, 200 and 250 kHz. The scaffold system was placed in the incubator (5% CO^2, 37° C.; Thermo Scientific, USA) and wired to the LCR meter located outside of the incubator via flexible ACF cables. The data was collected every 2 hours from the scaffold system.

Series [2] relates to MCF7 cells. Description: Impedimetric cytotoxicity of MCF7 cells on the scaffold system with Dox. It is filed as cell-based. To be noted: 30 kHz. Here is the method: The scaffold system remained afloat on the medium, wherein the recording electrodes were entirely surrounded with polyimide elastomers. The flexible conductors were ACF cables (HST-9805-210, Elform, Inc., USA) placed on the sponge-like PDMS buoyant member and wired to an external data acquisition system (E4980AL Precision LCR meter, Keysight Technologies, USA) through the air. […] From about 16 hours later, drastic increase of the impedance occurred due to the cell aggregation and continuous proliferation. This tendency was more obvious in the MCF7 cells because the population doubling time of MCF7 cells (about 29 hours) is shorter than that of SKOV3 cells (about 48 hours) and HUVEC cells (about 60 hours). Consistently, the impedance of the MCF7 cells increased proportionally to the cellular density (FIG. 3C).
as §1

The conditions of series [3]: hydrophilic and water-soluble; Doxorubicin Hydrochloride, Fisher; cited from earlier work.
For a further series, the system named is cardiomyocytes. Put plainly: ECG recording of cardiomyocytes on the scaffold in response to norepinephrine. Format: cell-based, neonatal mice. The settings on record: cardiomyocytes at day 8. The text has this:
The beating rate decreased from 288 bpm to 60 bpm and to 36 bpm, whereas the amplitude increased from 66 μV to 83 μV and to 511 μV at day 2, 6, and 8, respectively. The results imply that spontaneous contractions of the individual cells initially occurred, followed by stronger and more synchronized contractions as the cells become more in contact each other. […] A representative microscopy image in FIG. 4C highlights the embedded four-channel-multiplexed sensing electrodes with the cardiomyocytes at day 8 within the domain of 1.4×1.4 mm^2. The results in FIG. 4D indicate the synchronized beating rate (about 0.63 Hz), amplitude (638˜763 μV), and peak width (˜about 0.6 sec). 3D mapping results of the action potentials (FIG. 4E) obtained from the total 48 ECG sensors (4×4 array in each layer) reveal the spontaneous beating activities of the cardiomyocytes at day 2, 6, and 8 without showing any toxic effect.
For cardiomyocyte isolation, primary neonatal mice cardiomyocytes were prepared according to the Pierce Primary Cardiomyocyte Isolation Kit (Thermo Scientific, USA). Briefly, neonatal hearts were isolated from about 1 to 3 days old neonatal mice and placed into separate sterile microcentrifuge tubes containing 500 μL of ice cold Hank's Balanced Salt Solution (HBSS). […]

On to `COc1cccc2c1C(=O)c1c(O)c3c(c(O)c1C2=O)C[C@@](O)(C(=O)CO)C[C@@H]3O[C@H]1C[C@H](N)[C@H](O)[C@H](C)O1` [Dox, doxorubicin], for which the “rate of impedance decrease following drug administration, bottom layer” value in the series on MCF7 cells [1] (bottom scaffold layer) is listed as “about 1.6 Ω/hr”. Moreover, in the series with MCF7 cells [1] (middle scaffold layer), the “rate of impedance decrease following drug administration, middle layer” value is “about 5.4 Ω/hr”. Also, the “time after drug administration at which impedance started to decrease” value with MCF7 cells [2] (100 μM Dox introduced at 1-day incubation) was at most 4 h. The “decrease of the impedance” value in the series on MCF7 cells [2] (low drug administration 10 μM) is “no substantial decrease of the impedance”. Moreover, the solubility result in series [3] is reported as “about 50 mg/ml”.

On to `NC[C@H](O)c1ccc(O)c(O)c1` [norepinephrine], for which the “increase of beating rate” value with cardiomyocytes (addition of 100 μL of norepinephrine (bitartrate solution 10 μM) into the medium) is reported as “nearly two-fold”. Moreover, in the series on cardiomyocytes (addition of 100 μL of norepinephrine into the medium), the “time after NE administration to increase of beating rate” value is at most 3 min.
